Data: patent US8088806B2 (Achillion Pharmaceuticals, Inc., priority 2005, dated 2012)

What follows are compounds tested on HCV replicon (assay: Replicon based assay of HCV replication inhibition (NPT ELISA)). Details: Hepatitis C virus, Huh-7, 72 h, Table I; Huh-7 HCV replicon-containing cells, three days; read-out: Activity.
Format: cell-based, Hepatitis C virus
Procedure: Compounds claimed herein are tested for the ability to inhibit viral replication of the Hepatitis C replicon in cultured cells in which the HCV replicon construct has been incorporated. The HCV replicon system was described by Bartenschlager, et. al (Science, 285, pp. 110-113 (1999)). The replicon system is predictive of in vivo anti-HCV activity; compounds that are active in humans uniformly evidence activity in the replicon assay.
In this assay HCV replicon containing cells are treated with different concentrations of the test compound to ascertain the ability of the test compound to suppress replication of the HCV replicon. As a positive control, HCV replicon-containing cells are treated with different concentrations of interferon alpha, a known inhibitor of HCV replication. The replicon assay system includes Neomycin Phosphotransferase (NPT) as a component of the replicon itself in order to detect the transcription of replicon gene products in the host cell. Cells in which the HCV replicon is actively replicating have high levels of NPT; the level of NPT is proportional to HCV replication. […] The NPT level of each sample is measured using a captured ELISA.
A protocol for testing compounds for the ability to inhibit viral replication of the Hepatitis C replicon cultured cells in which the replicon construct has been incorporated, follows.
The HCV replicon contains, 5′-3′, the HCV-IRES, the neomycin phosphotransferase (neo) gene, the IRES of encephalomyocarditis virus, which directs translation of HCV sequences NS3 to NS5B, and the 3′-NTR. The sequence of the HCV replicon has been deposited in GenBank (Accession no. AJ242652).
The replicon is transfected into Huh-7 cells using standard methods such as electroporation.
The equipment and materials include, but are not limited to, Huh-7 HCV replicon-containing cells, maintenance media (DMEM (Dulbecco's modified Eagle media) supplemented with 10% FBS, L-glutamine, non-essential amino acids, penicillin (100 units/ml), streptomycin (100 micrograms/ml), and 500 micrograms/ml of Geneticin (G418), screening media (DMEM supplemented with 10% FBS, L-glutamine, non-essential amino acids, penicillin (100 units/ml) and streptomycin (100 micrograms/ml)), 96 well tissue culture plates (flat bottom), 96 well plates (U bottom for drug dilution), Interferon alpha for positive control, fixation reagent (such as methanol: acetone), primary antibody (rabbit anti-NPTII), secondary antibody: Eu-N1l, and enhancement solution.
The cells are then seeded onto 96-well plates at a density of 6000-7500 cells/100 microliters/well (6-7.5×10^5 cells/10 ml/plate). The plates are then incubated at 37° C. in a 5% CO2 incubator.
HCV replicon-containing cells are rinsed with once PBS once; 2 mls of trypsin are then added. Cells are incubated at 37° C. in a 5% CO2 incubator for 3-5 minutes. 10 mls of complete medium is added to stop the reaction. Cells are blown gently, put into a 15 ml tube, and spun at 1200 rpm for four minutes. The trypsin/medium solution is removed and 5 mls of medium (500 ml DMEM (high glucose)) from BRL catalog #12430-054; 50 mls 10% FBS, 5% Geneticin G418 (50 mg/ml, BRL catalog #10131-035), 5 ml MEM non-essential amino acids (100×BRL #11140-050) and 5 ml pen-strep (BRL # 15140-148) is added. The cells and media are mixed carefully
Cells are plated with screening medium (500 ml DMEM (BRL #21063-029), 50 ml FBS (BRL #10082-147) and 5 ml MEM non-essential amino acid (BRL #11140-050) at 6000-7500 cells/100 μl/well of 96 well plate (6-7.5×10^5 cells/10 ml/plate). Plates are placed into 37° C. 5% CO2 incubator overnight.
The following morning, drugs (test compounds or interferon alpha) are diluted in 96 well U bottom plates with media or DMSO/media, depending on the final concentration chosen for screening. Generally for 6 concentrations of each test compounds ranging from 10 micromolar to 0.03 micromolar are applied. […]

Going from `CCCCCOc1ccc(Nc2ncc(C(=O)NCc3ccc(S(N)(=O)=O)cc3)s2)cc1C(F)(F)F` [compound 151, N-(4-aminosulfonyl-benzyl)-2-(4-(pentyloxy)-3-(trifluoromethyl)phenylamino)-thiazole-5-carboxamide] to `CCCCCOc1ccc(Nc2ncc(C(=O)Nc3ccc(Cl)cc3)s2)cc1C(F)(F)F` [compound 149, 2-(3-(trifluoromethyl)-4-(pentyloxy)phenylamino)-N-(4-chlorophenyl)thiazole-5-carboxamide], the EC50 falls from greater than 10000 nM to less than 1000 nM.

`CN(C(=O)c1csc(-c2cccnc2)n1)c1ccc(Cl)c(Cl)c1` [compound 126, N-(3,4-dichlorophenyl)-N-methyl-2-(pyridin-3-yl)thiazole-4-carboxamide] and `CCCCc1ccc(CNc2nc(-c3cccnc3)cs2)cc1` [compound 82, N-(4-butylbenzyl)-4-(pyridin-3-yl)thiazol-2-amine] cannot be ordered by EC50: greater than 10000 nM for the first, greater than 10000 nM for the second.

Compared with `CCCCCOc1ccc(Nc2nc(-c3ccc(Cl)cc3)c(-c3ccccc3)s2)cc1C(F)(F)F` [compound 135, 4-(4-chlorophenyl)-N-(3-(trifluoromethyl)-4-(pentyloxy)phenyl)-5-phenylthiazol-2-amine], `CCCCCOc1ccc(Nc2ncc(-c3ccccc3)s2)cc1C(F)(F)F` [compound 117, N-(3-(trifluoromethyl)-4-(pentyloxy)phenyl)-5-phenylthiazol-2-amine] is lower in EC50: greater than 10000 nM for the first, less than 1000 nM for the second. The second is the more potent here.

`c1cncc(-c2csc(Nc3ccc(-n4ccnc4)cc3)n2)c1` [compound 103, N-(4-(1H-imidazol-1-yl)phenyl)-4-(pyridin-3-yl)thiazol-2-amine] and `N#Cc1ccc(Nc2nc(-c3ccc(F)cc3)cs2)cc1` [compound 51, 4-(4-(4-fluorophenyl)thiazol-2-ylamino)benzonitrile] cannot be ordered by EC50: greater than 10000 nM for the first, greater than 10000 nM for the second.

First: COc1ccc(OC)c(Nc2nc(-c3c(C)nc4sccn34)cs2)c1 [compound 164, N-(2,5-dimethoxyphenyl)-4-(6-methylimidazo[2,1-b]thiazol-5-yl)thiazol-2-amine]
Second: CCCCCc1ccc(Nc2nc(-c3ccc(Cl)cc3)cs2)cc1 [compound 20, 4-(4-chlorophenyl)-N-(4-pentylphenyl)thiazol-2-amine]
The EC50 of the first is higher: greater than 10000 nM for the first, less than 1000 nM for the second.

Same assay, conditions: Hepatitis C virus, Huh-7, 72 h, Table III; Huh-7 HCV replicon-containing cells, three days; read-out: Activity

`CCCCCCCCOc1ccc(Nc2nc(Cc3ccc(OC)cc3)cs2)cc1C(F)(F)F` [compound 641, 4-(4-methoxybenzyl)-N-(3-(trifluoromethyl)-4-(octyloxy)phenyl)thiazol-2-amine] and `CCCCCCCCOc1ccc(Nc2nc(-c3cccc4cccnc34)cs2)cc1C(F)(F)F` [compound 708, N-(3-(trifluoromethyl)-4-(octyloxy)phenyl)-4-(quinolin-8-yl)thiazol-2-amine] cannot be ordered by EC50: less than 1000 nM for the first, less than 1000 nM for the second.

`CCCCCCCCOc1ccc(Nc2nc(-c3ccc(C#N)o3)cs2)cc1C(F)(F)F` [compound 703, 5-(2-(3-(trifluoromethyl)-4-(octyloxy)phenylamino)thiazol-4-yl)furan-2-carbonitrile] and `CCCCCCCCOc1ccc(Nc2nc(-c3ccc(NC(C)=O)nc3)cs2)cc1C(F)(F)F` [compound 678, N-(5-(2-(3-(trifluoromethyl)-4-(octyloxy)phenylamino)thiazol-4-yl)pyridin-2-yl)acetamide] cannot be ordered by EC50: less than 1000 nM for the first, less than 1000 nM for the second.

`CCCC(CCC)Oc1ccc(Nc2nc(-c3cnccn3)cs2)cc1C(F)(F)F` [compound 597, N-(3-(trifluoromethyl)-4-(heptan-4-yloxy)phenyl)-4-(pyrazin-2-yl)thiazol-2-amine] and `CCCCCCCCOc1ccc(Nc2nc(-c3cnc4ccccc4c3)cs2)cc1C(F)(F)F` [compound 539, N-(3-(trifluoromethyl)-4-(octyloxy)phenyl)-4-(quinolin-3-yl)thiazol-2-amine] cannot be ordered by EC50: less than 1000 nM for the first, less than 1000 nM for the second.

With `CN1CCN(CCCOc2ccc(Nc3nc(-c4cccnc4)cs3)cc2C(F)(F)F)CC1` [compound 694, N-(4-(3-(4-methylpiperazin-1-yl)propoxy)-3-(trifluoromethyl)phenyl)-4-(pyridin-3-yl)thiazol-2-amine] the EC50 was 1000 to 10000 nM.

Same assay, conditions: Hepatitis C virus, replicon based assay of HCV replication inhibition; Table II; read-out: Activity

First: CCCCCOc1ccc(Nc2nc(CN3CCC(O)CC3)cs2)cc1F [compound 291, 1-((2-(3-fluoro-4-(pentyloxy)phenylamino)thia-zol-4-yl)methyl)piperidin-4-ol]
Second: CCCCCOc1ccc(Nc2nc(CN3CCC(C)CC3)cs2)cc1C(F)(F)F [compound 231, 4-((4-methylpiperidin-1-yl)methyl)-N-(4-(pentyloxy)-3-(trifluoromethyl)phenyl)thia-zol-2-amine]
The EC50 of the first is higher: 1000 to 10000 nM for the first, less than 1000 nM for the second. The second is the more potent here.

First: CCCCCOc1ccc(Nc2nc(-c3cccc(O)c3)cs2)cc1C(F)(F)F [compound 434, 3-(2-(3-(trifluoromethyl)-4-(pentyloxy)phenylmino)thia-zol-4-yl)phenol]
Second: CCCCCOc1ccc(Nc2nc(-c3cncnc3)cs2)cc1C(F)(F)F [compound 505, N-(3-(trifluoromethyl)-4-(pentyloxy)phenyl)-4-(pyrimidin-5-yl)thiazol-2-amine]
The EC50 of the first is higher: 1000 to 10000 nM for the first, less than 1000 nM for the second.

First: CCCCCOc1ccc(Nc2nc(-c3ccc(C(=O)NC)nc3)cs2)cc1C(F)(F)F [compound 259, N-methyl-5-(2-(4-(pentyloxy)-3-(trifluoromethyl)phenyl-amino)thiazol-4-yl)picolinamide]
Second: CCCCCCCCOc1ccc(Nc2nc(Cc3cccnc3)cs2)cn1 [compound 497, 6-(octyloxy)-N-(4-((pyridin-3-yl)methyl)thiazol-2-yl)pyridin-3-amine]
The EC50 of the first is lower: less than 1000 nM for the first, 1000 to 10000 nM for the second. The first is the more potent here.

`CCCCCCCCN(C)c1ccc(Nc2nc(Cc3ccccc3)cs2)cc1` [compound 493, N^1-(4-benzylthiazol-2-yl)-N^4-methyl-N^4-octylbenzene-1,4-diamine] showed an EC50 of 1000 to 10000 nM.

Same assay, conditions: Hepatitis C virus, replicon based assay of HCV replication inhibition; Table IV; read-out: Activity

First: FC(F)(F)c1cc(Nc2nc(-c3cnccn3)cs2)ccc1OCCCCc1cccs1 [compound 941, N-(4-(4-(thiophen-2-yl)butoxy)-3-(trifluoromethyl)phenyl)-4-(pyrazin-2-yl)thiazol-2-amine]
Second: CCCCCCCCOc1ccc(Nc2nc(-c3cccnc3)c(C#N)s2)cc1C(F)(F)F [compound 913, 2-(3-(trifluoromethyl)-4-(octyloxy)phenylamino)-4-(pyridin-3-yl)thiazole-5-carbonitrile]
The EC50 of the first is lower: less than 1000 nM for the first, 1000 to 10000 nM for the second.

`O=C(O)Cc1ccc(-c2csc(Nc3ccc(OCCCC4CCCC4)c(C(F)(F)F)c3)n2)s1` [compound 850, 2-(5-(2-(4-(3-cyclopentylpropoxy)-3-(trifluoromethyl)phenylamino)thiazol-4-yl)thiophen-2-yl)acetic acid] and `O=C(O)Cc1ccc(-c2csc(Nc3ccc(OCCCCc4ccccc4)c(F)c3)n2)s1` [compound 929, 2-(5-(2-(4-(4-phenylbutoxy)-3-fluorophenylamino)thiazol-4-yl)thiophen-2-yl)acetic acid] cannot be ordered by EC50: less than 1000 nM for the first, less than 1000 nM for the second.

First: Clc1ccc(-c2cc(Nc3nc(-c4cccnc4)cs3)[nH]n2)cc1 [compound 738, 3-(4-chlorophenyl)-N-(4-(pyridin-3-yl)thiazol-2-yl)-1H-pyrazol-5-amine]
Second: CCOC(=O)Cc1ccc(-c2csc(Nc3ccc(OCCCCc4ccccc4)c(F)c3)n2)s1 [compound 930, ethyl 2-(5-(2-(4-(4-phenylbutoxy)-3-fluorophenylamino)thiazol-4-yl)thiophen-2-yl)acetate]
The EC50 of the first is higher: greater than 10000 nM for the first, 1000 to 10000 nM for the second.
